Experimental findings from patent US10160747B2, “Compounds and methods for kinase modulation, and indications therefor” (Plexxikon Inc., priority 2016, dated 2018) are described below.

Experiment [1] relates to MOLM-14 F691L (endogenous FLT3 ITD and transfected FLT3 F691L). Kind of experiment: MOLM-14 F691L cell proliferation assay (CellTiter-Glo). The conditions noted are these: Homo sapiens, MOLM-14, 72 h; 3 d growth, GMean. In kind it is cell-based. A digest of the protocol: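 MOLM-14 cells (FLT3 ITD) carrying D835Y or F691L, 1×10^4 cells/well, eight 1:3 dilutions from 1 μM final, 0.2% DMSO, 3 days at 37 °C, 5% CO2. Viability by CellTiter-Glo luminescence (ATP content); IC50 from concentration-response.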
In general terms: In ATP-based viability assays light output follows the ATP content of the culture.

For a further experiment, the target named is T1, FLT3-D835Y (Homo sapiens, UniProt P36888, D835Y).
T1 construct: purchased Invitrogen PV3967
T1 sequence (P36888 27-993 D835Y): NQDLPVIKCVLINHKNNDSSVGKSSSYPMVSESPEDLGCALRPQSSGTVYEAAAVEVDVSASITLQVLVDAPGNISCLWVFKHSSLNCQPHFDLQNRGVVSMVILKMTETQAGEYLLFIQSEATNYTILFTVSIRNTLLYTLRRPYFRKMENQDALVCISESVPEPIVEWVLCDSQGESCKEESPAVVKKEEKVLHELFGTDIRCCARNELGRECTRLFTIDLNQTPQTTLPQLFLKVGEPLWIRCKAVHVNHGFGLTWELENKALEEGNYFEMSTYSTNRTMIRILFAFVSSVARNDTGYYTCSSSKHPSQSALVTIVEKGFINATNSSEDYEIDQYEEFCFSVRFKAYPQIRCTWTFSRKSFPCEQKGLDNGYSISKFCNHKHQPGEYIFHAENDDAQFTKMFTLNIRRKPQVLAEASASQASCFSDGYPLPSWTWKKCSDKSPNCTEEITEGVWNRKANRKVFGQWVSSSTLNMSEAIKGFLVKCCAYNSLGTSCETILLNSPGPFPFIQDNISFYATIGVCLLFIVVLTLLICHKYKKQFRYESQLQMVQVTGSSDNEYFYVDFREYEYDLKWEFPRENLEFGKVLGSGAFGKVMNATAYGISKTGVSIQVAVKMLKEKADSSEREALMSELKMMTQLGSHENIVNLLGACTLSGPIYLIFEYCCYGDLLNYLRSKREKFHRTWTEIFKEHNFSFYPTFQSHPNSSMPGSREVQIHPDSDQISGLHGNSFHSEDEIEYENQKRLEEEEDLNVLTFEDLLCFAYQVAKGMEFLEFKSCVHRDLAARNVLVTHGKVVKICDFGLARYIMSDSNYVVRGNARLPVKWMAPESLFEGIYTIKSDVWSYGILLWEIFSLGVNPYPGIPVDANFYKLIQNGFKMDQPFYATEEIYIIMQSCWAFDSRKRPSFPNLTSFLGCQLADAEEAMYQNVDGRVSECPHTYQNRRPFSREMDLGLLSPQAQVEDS
Kind of experiment: FLT3-D835Y recombinant enzyme kinase assay (AlphaScreen). The format is biochemical. The conditions noted are these: 8 pt, GMean. A digest of the protocol: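 Recombinant kinase phosphorylates 30 nM biotinylated poly(Glu4-Tyr) peptide; ATP is 10 μM for FLT3-ITD and FLT3-D835Y, 100 μM for c-KIT. Phosphotyrosine detected by AlphaScreen (streptavidin donor, PY20 acceptor beads, 10 μg/mL), 580 nm signal after 680 nm excitation; IC50 from signal decrease.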
In general terms: In Alpha technology, singlet oxygen from a donor bead excites a nearby acceptor bead.

On to `O=C(Cc1ccc(-c2cnc3[nH]cc(F)c3c2)cc1F)Nc1cc(Cl)c(C2CC2)cn1` [Compound P-0044, N-(4-chloro-5-cyclopropyl-2-pyridyl)-2-[2-fluoro-4-(3-fluoro-1H-pyrrolo[2,3-b]pyridin-5-yl)phenyl]acetamide], for which the IC50 (in experiment [1]; on FLT3-D835Y) was 0.0001 to 10 µM throughout.

As to `COc1ncc(NC(=O)Cc2ccc(-c3cnc4[nH]cc(Cl)c4n3)cc2F)cc1C(F)(F)F` [Compound P-0047, 2-[4-(7-chloro-5H-pyrrolo[2,3-b]pyrazin-2-yl)-2-fluoro-phenyl]-N-[6-methoxy-5-(trifluoromethyl)-3-pyridyl]acetamide], the IC50 (in experiment [1]; on FLT3-D835Y) was 0.0001 to 10 µM in each case.

With `COc1nn(C[C@H](C)O)cc1Nc1ncc(-c2ccc(CC(=O)Nc3cncc(C(F)(F)F)c3)c(F)c2)cn1` [Compound P-0050, 2-[2-fluoro-4-[2-[[1-[(2S)-2-hydroxypropyl]-3-methoxy-pyrazol-4-yl]amino]pyrimidin-5-yl]phenyl]-N-[5-(trifluoromethyl)-3-pyridyl]acetamide], the IC50 (in experiment [1]; on FLT3-D835Y) was 0.0001 to 10 µM throughout.

Take `Cn1cnc(Nc2ncc(-c3ccc(CC(=O)Nc4cncc(C(F)(F)F)c4)c(F)c3)cn2)c1` [Compound P-0052, 2-[2-fluoro-4-[2-[(1-methylimidazol-4-yl)amino]pyrimidin-5-yl]phenyl]-N-[5-(trifluoromethyl)-3-pyridyl]acetamide]: the IC50 (in experiment [1]; at FLT3-D835Y) was 0.0001 to 10 µM throughout.

Regarding `O=C(Cc1ccc(-c2cnc3[nH]cc(F)c3c2)cc1F)Nc1cncc(C(F)(F)F)c1` [Compound P-0053, 2-[2-fluoro-4-(3-fluoro-1H-pyrrolo[2,3-b]pyridin-5-yl)phenyl]-N-[5-(trifluoromethyl)-3-pyridyl]acetamide], the IC50 (in experiment [1]; on FLT3-D835Y) was 0.0001 to 10 µM each time.

Consider `CC(=O)c1c[nH]c2ncc(-c3ccc(CC(=O)Nc4cncc(C(F)(F)F)c4)c(F)c3)cc12` [Compound P-0055, 2-[4-(3-acetyl-1H-pyrrolo[2,3-b]pyridin-5-yl)-2-fluoro-phenyl]-N-[5-(trifluoromethyl)-3-pyridyl]acetamide], for which the IC50 (in experiment [1]; at FLT3-D835Y) was 0.0001 to 10 µM in each case.

For `Cc1ncc(NC(=O)Cc2ccc(-c3cnc4c(c3)C3(CC3)C(=O)N4)cc2F)cc1C(F)(F)F` [Compound P-0057, 2-[2-fluoro-4-(2-oxospiro[1H-pyrrolo[2,3-b]pyridine-3,1′-cyclopropane]-5-yl)phenyl]-N-[6-methyl-5-(trifluoromethyl)-3-pyridyl]acetamide], the IC50 (in experiment [1]; at FLT3-D835Y) was 0.0001 to 10 µM each time.

As for `O=C(Cc1ccc(-c2cnc(Nc3cnn4ccccc34)nc2)cc1F)Nc1cncc(C(F)(F)F)c1` [Compound P-0058, 2-[2-fluoro-4-[2-(pyrazolo[1,5-a]pyridin-3-ylamino)pyrimidin-5-yl]phenyl]-N-[5-(trifluoromethyl)-3-pyridyl]acetamide], the 50% inhibitory concentration (IC50) (in experiment [1]; on FLT3-D835Y) was 0.0001 to 10 µM in each case.

Turning to `Cc1ncc(NC(=O)Cc2ccc(-c3cnc4[nH]cc(Cl)c4n3)cc2F)cc1C(F)(F)F` [Compound P-0059, 2-[4-(7-chloro-5H-pyrrolo[2,3-b]pyrazin-2-yl)-2-fluoro-phenyl]-N-[6-methyl-5-(trifluoromethyl)-3-pyridyl]acetamide], the half-inhibitory concentration (IC50) (in experiment [1]; on FLT3-D835Y) was 0.0001 to 10 µM in each case.

Take `O=C(Cc1ccc(-c2cnc3[nH]cc(Cl)c3n2)cc1F)Nc1cnc(Cl)c(C(F)(F)F)c1` [Compound P-0060, 2-[4-(7-chloro-5H-pyrrolo[2,3-b]pyrazin-2-yl)-2-fluoro-phenyl]-N-[6-chloro-5-(trifluoromethyl)-3-pyridyl]acetamide]: the IC50 (in experiment [1]; on FLT3-D835Y) was 0.0001 to 10 µM in each case.

As to `O=C(Cc1ccc(-c2cnc3[nH]cc(Cl)c3n2)cc1F)Nc1cncc(C(F)(F)F)c1` [Compound P-0061, 2-[4-(7-chloro-5H-pyrrolo[2,3-b]pyrazin-2-yl)-2-fluoro-phenyl]-N-[5-(trifluoromethyl)-3-pyridyl]acetamide], the IC50 (in experiment [1]; at FLT3-D835Y) was 0.0001 to 10 µM throughout.

Turning to `Cc1ncc(NC(=O)Cc2ccc(-c3cnc4[nH]cc(F)c4c3)cc2F)cc1C(F)(F)F` [Compound P-0062, 2-[2-fluoro-4-(3-fluoro-1H-pyrrolo[2,3-b]pyridin-5-yl)phenyl]-N-[6-methyl-5-(trifluoromethyl)-3-pyridyl]acetamide], the IC50 (in experiment [1]; at FLT3-D835Y) was 0.0001 to 10 µM each time.

In the case of `CC(=O)c1c[nH]c2ncc(-c3ccc(CC(=O)Nc4cnc(C)c(C(F)(F)F)c4)c(F)c3)cc12` [Compound P-0063, 2-[4-(3-acetyl-1H-pyrrolo[2,3-b]pyridin-5-yl)-2-fluoro-phenyl]-N-[6-methyl-5-(trifluoromethyl)-3-pyridyl]acetamide], the IC50 (in experiment [1]; on FLT3-D835Y) was 0.0001 to 10 µM each time.

On to `Cc1ncc(NC(=O)Cc2ccc(-c3cnc(Nc4cnn5ccccc45)nc3)cc2F)cc1C(F)(F)F` [Compound P-0065, 2-(2-fluoro-4-(2-(pyrazolo[1,5-a]pyridin-3-ylamino)pyrimidin-5-yl)phenyl)-N-(6-methyl-5-(trifluoromethyl)pyridin-3-yl)acetamide], for which the half-maximal inhibitory concentration (IC50) (in experiment [1]; at FLT3-D835Y) was 0.0001 to 10 µM throughout.

Turning to `Cc1ncc(NC(=O)Cc2ccc(-c3cnc4[nH]nc(C5CC5)c4c3)cc2F)cc1C(F)(F)F` [Compound P-0066, 2-(4-(3-cyclopropyl-1H-pyrazolo[3,4-b]pyridin-5-yl)-2-fluorophenyl)-N-(6-methyl-5-(trifluoromethyl)pyridin-3-yl)acetamide], the half-maximal inhibitory concentration (IC50) (in experiment [1]; at FLT3-D835Y) was 0.0001 to 10 µM each time.

Consider `Cc1ncc(NC(=O)Cc2ccc(-c3cnc4[nH]c(Cl)cc4c3)cc2F)cc1C(F)(F)F` [Compound P-0067, 2-[4-(2-chloro-1H-pyrrolo[2,3-b]pyridin-5-yl)-2-fluoro-phenyl]-N-[6-methyl-5-(trifluoromethyl)-3-pyridyl]acetamide], for which the IC50 (in experiment [1]; at FLT3-D835Y) was 0.0001 to 10 µM throughout.

Regarding `CCC(=O)c1c[nH]c2ncc(-c3ccc(CC(=O)Nc4cncc(C(F)(F)F)c4)c(F)c3)cc12` [Compound P-0068, 2-[2-fluoro-4-(3-propanoyl-1H-pyrrolo[2,3-b]pyridin-5-yl)phenyl]-N-[5-(trifluoromethyl)-3-pyridyl]acetamide], the IC50 (in experiment [1]; at FLT3-D835Y) was 0.0001 to 10 µM in each case.

Take `CCC(=O)c1c[nH]c2ncc(-c3ccc(CC(=O)Nc4cnc(C)c(C(F)(F)F)c4)c(F)c3)cc12` [Compound P-0070, 2-[2-fluoro-4-(3-propanoyl-1H-pyrrolo[2,3-b]pyridin-5-yl)phenyl]-N-[6-methyl-5-(trifluoromethyl)-3-pyridyl]acetamide]: the IC50 (in experiment [1]; on FLT3-D835Y) was 0.0001 to 10 µM throughout.

Take `O=C(Cc1ccc(-c2cnc(Nc3cnn4ccccc34)nc2)c(F)c1)Nc1cncc(C(F)(F)F)c1` [Compound P-0071, 2-[3-fluoro-4-[2-(pyrazolo[1,5-a]pyridin-3-ylamino)pyrimidin-5-yl]phenyl]-N-[5-(trifluoromethyl)-3-pyridyl]acetamide]: the IC50 (in experiment [1]; on FLT3-D835Y) was 0.0001 to 10 µM in each case.

As for `O=C(Cc1ccc(-c2cnc3[nH]nc(C4CC4)c3c2)cc1F)Nc1cncc(C(F)(F)F)c1` [Compound P-0072, 2-[4-(3-cyclopropyl-1H-pyrazolo[3,4-b]pyridin-5-yl)-2-fluoro-phenyl]-N-[5-(trifluoromethyl)-3-pyridyl]acetamide], the IC50 (in experiment [1]; on FLT3-D835Y) was 0.0001 to 10 µM throughout.

Turning to `O=C(Cc1ccc(-c2cnc3[nH]nc(C4CC4)c3c2)cc1)Nc1cncc(C(F)(F)F)c1` [Compound P-0073, 2-[4-(3-cyclopropyl-1H-pyrazolo[3,4-b]pyridin-5-yl)phenyl]-N-[5-(trifluoromethyl)-3-pyridyl]acetamide], the half-inhibitory concentration (IC50) (in experiment [1]; on FLT3-D835Y) was 0.0001 to 10 µM throughout.

`O=C(Cc1ccc(-c2cnc(Nc3cnn4ccccc34)nc2)cc1)Nc1cncc(C(F)(F)F)c1` [Compound P-0074, 2-[4-[2-(pyrazolo[1,5-a]pyridin-3-ylamino)pyrimidin-5-yl]phenyl]-N-[5-(trifluoromethyl)-3-pyridyl]acetamide]: the IC50 (in experiment [1]; at FLT3-D835Y) was 0.0001 to 10 µM in each case.

Broadly, the IC50 is the point on the concentration scale where inhibition reaches its midpoint.
